One data set concerns DENV-2 strain 16681. The data set can be described thus: Tetravalent RT-qPCR assay, serotype 2. It counts as cell-based. The conditions noted are these: Dengue virus, DENV2, 72 h; RT-qPCR serotype 2 16681, Protocol A, Vero cells, day 3. The method, then: (§1) The antiviral activity of the compounds of the invention was tested against DENV-1 strain TC974 #666 (NCPV), DENV-2 strain 16681, DENV-3 strain H87 (NCPV) and DENV-4 strain H241 (NCPV) in a RT-qPCR assay. Therefore, Vero cells were infected with either DENV-1, or -2, or -3, or -4 in the presence or absence of test compounds. At day 3 post-infection, the cells were lysed and cell lysates were used to prepare cDNA of both a viral target (the 3′UTR of DENV; Table 2) and cellular reference gene (β-actin, Table 2). Subsequently, a duplex real time PCR was performed on a Lightcycler480 instrument. The generated Cp value is inversely proportional to the amount of RNA expression of these targets. Inhibition of DENV replication by a test compound results in a shift of Cp's for the 3′UTR gene. On the other hand, if a test compound is toxic to the cells, a similar effect on β-actin expression will be observed. The comparative ΔΔCp method is used to calculate EC50, which is based on the relative gene expression of the target gene (3′UTR) normalized with the cellular housekeeping gene (β-actin). In addition, CC50 values are determined based on the Cp values acquired for the housekeeping gene β-actin.
(§2) The culture medium consisted of minimal essential medium supplemented with 2% of heat-inactivated fetal calf serum, 0.04% gentamycin (50 mg/mL) and 2 mM of L-glutamine. Vero cells, obtained from ECACC, were suspended in culture medium and 75 μL/well was added in 96-well plates (10000 cells/well), which already contain the antiviral compounds. […] In addition, each plate contains wells which are assigned as virus controls (containing cells and virus in the absence of compound) and cell controls (containing cells in the absence of virus and compound). Once the cells were added in the plates, the plates were incubated in a fully humidified incubator (37° C., 5% CO2) until the next day. Dengue viruses serotype-1, 2, 3 and 4 were diluted in order to obtain a Cp of ˜22-24 in the assay. Therefore, 25 μL of virus suspension was added to all the wells containing test compound and to the wells assigned as virus control. In parallel, 25 μL of culture medium was added to the cell controls. Next, the plates were incubated for 3 days in a fully humidified incubator (37° C., 5% CO2). After 3 days, the supernatant was removed from the wells and the cells were washed twice with ice-cold PBS (˜100 μL). The cell pellets within the 96-well plates were stored at −80° C. for at least 1 day. Next, RNA was extracted using the Cells-to-CT™ lysis kit, according to the manufacturer's guideline (Life Technologies). The cell lysates can be stored at −80° C. or immediately used in the reverse transcription step.
(§3) In preparation of the reverse transcription step, mix A (table 3A) was prepared and 7.57 μL/well was dispensed in a 96-well plate. After addition of 5 μL of the cell lysates, a five minute denaturation step at 75° C. was performed (table 3B). Afterwards, 7.43 μL of mix B was added (table 3C) and the reverse transcription step was initiated (table 3D) to generate cDNA.
(§4) Finally, a RT-qPCR mix was prepared, mix C (table 4A), and 22.02 μL/well was dispensed in 96-well LightCycler qPCR plates to which 3 μL of cDNA was added and the qPCR was performed according to the conditions in table 4B on a LightCycler 480.
(§5) Using the LightCycler software and an in-house LIMS system, dose response curves for each compound were calculated and the half maximal effective concentration (EC50) and the half maximal cytotoxic concentration (CC50) were determined (Tables 5-8).

The test system of another data set is DENV-2 16681 strain. The data set can be described thus: DENV-2 antiviral assay (eGFP-labeled virus in Vero cells). The conditions noted are these: DENV-2 16681 eGFP, MOI 0.5, 3 days. It counts as cell-based, Dengue virus. The method, then: The antiviral activity of all the compounds of the invention was tested against the DENV-2 16681 strain which was labeled with enhanced green fluorescent protein (eGPF). The culture medium consists of minimal essential medium supplemented with 2% of heat-inactivated fetal calf serum, 0.04% gentamycin (50 mg/mL) and 2 mM of L-glutamine. Vero cells, obtained from ECACC, were suspended in culture medium and 25 μL was added to 384-well plates (2500 cells/well), which already contain the antiviral compounds. Typically, these plates contain a 5-fold serial dilution of 9 dilution steps of the test compound at 200 times the final concentration in 100% DMSO (200 nL). […] Finally, each plate contains wells which are assigned as virus controls (containing cells and virus in the absence of compound), cell controls (containing cells in the absence of virus and compound) and medium controls (containing medium in the absence of cells, virus and compounds). To the wells assigned as medium control, 25 μL of culture medium was added instead of Vero cells. Once the cells were added to the plates, the plates were incubated for 30 minutes at room temperature to allow the cells to distribute evenly within the wells. Next, the plates were incubated in a fully humidified incubator (37° C., 5% CO2) until the next day. Then, DENV-2 strain 16681, labeled with eGFP, was added at a multiplicity of infection (MOI) of 0.5. Therefore, 15 μL of virus suspension was added to all the wells containing test compound and to the wells assigned as virus control. In parallel, 15 μL of culture medium was added to the medium and cell controls. Next, the plates were incubated for 3 days in a fully humidified incubator (37° C., 5% CO2). At the day of the read out, the eGFP fluorescence was measured using an automated fluorescence microscope at 488 nm (blue laser). Using an in-house LIMS system, inhibition dose response curves for each compound were calculated and the half maximal effective concentration (EC50) was determined. Therefore, the percent inhibition (I) for every test concentration is calculated using the following formula: I=100*([…])/(SVC−SCC); ST, SCC and SVC are the amount of eGFP signal in the test compound, cell control and virus control wells, respectively. The EC50 represents the concentration of a compound at which the virus replication is inhibited with 50%, as measured by a 50% reduction of the eGFP fluorescent intensity compared to the virus control. The EC50 is calculated using linear interpolation (Table 1).

Another data set concerns DENV-1 strain TC974 #666. The data set can be described thus: Tetravalent RT-qPCR assay, serotype 1. The data set is classed as cell-based. Particulars: Dengue virus, DENV1, 72 h; RT-qPCR serotype 1 TC974#666, Protocol A, Vero cells, day 3. The method, then: as §1, §2, §3, §4, §5
The next data set relates to DENV-4 strain H241. The data set can be described thus: Tetravalent RT-qPCR assay, serotype 4. It counts as cell-based. The conditions noted are these: Dengue virus, DENV4, 72 h; RT-qPCR serotype 4 H241, Protocol A, Vero cells, day 3. As to the method: as §1, §2, §3, §4, §5
(In general: Real-time PCR tracks product formation cycle by cycle.)

A short description of data set [1]: Cytotoxicity in RT-qPCR assay (Cp of housekeeping gene β-actin). The data set is classed as cell-based. The conditions noted are these: African green monkey. As to the method:
as §1, §2, §5

The subject of the next data set is DENV-3 strain H87. The data set can be described thus: Tetravalent RT-qPCR assay, serotype 3. Particulars: Dengue virus, DENV3, 72 h; RT-qPCR serotype 3 H87, Protocol A, Vero cells, day 3. It counts as cell-based. As to the method: as §1, §2, §3, §4, §5
In a further data set the test system is Vero cells. The data set can be described thus: Toxicity on the same plates (ATPlite cell viability). The conditions noted are these: Vero cells, same plates as DENV-2 antiviral assay. In general terms: ATP-based viability assays read luminescence as a measure of living cells.
Where [2] appears, read: RT-qPCR serotype 1 TC974#666, Protocol A.
Where [3] appears, read: RT-qPCR serotype 2 16681, Protocol A.
The mark [4] stands for this setting: RT-qPCR serotype 3 H87, Protocol A.
Where [5] appears, read: RT-qPCR serotype 4 H241, Protocol A.

pEC50: −log10 of the molar value.

By pEC50 is commonly meant −log10 of the EC50, conventionally taken in molar units. By CC50 is commonly meant the concentration at which the toxic effect on the cells reaches its halfway point.

For the compound `COc1cc(NC(C(=O)c2c[nH]c3cc(OC)c(OC(F)(F)F)cc23)c2ccc(F)cc2OC)cc(OCCO)c1` (single isomer, unassigned) [Compound 6A, 2-(4-fluoro-2-methoxyphenyl)-2-((3-(2-hydroxyethoxy)-5-methoxyphenyl)amino)-1-(6-methoxy-5-(trifluoromethoxy)-1H-indol-3-yl)ethanone], the pEC50 with DENV-2 strain 16681 is 9.26; in the data set with DENV-2 16681 strain, 9.48; in the data set with DENV-1 strain TC974 #666, 8.59; in the data set on DENV-4 strain H241, 7.11; with DENV-3 strain H87, 7.92. Further, the CC50 at 3 days is above 2100 nM in data set [1] (setting [2]), 3900 nM in data set [1] (setting [3]), above 2500 nM in data set [1] (setting [4]) and 1500 nM in data set [1] (setting [5]). The CC50 in the data set on Vero cells was above 2500 nM.
With `COc1cc(NC(C(=O)c2c[nH]c3cc(F)c(OC(F)(F)F)cc23)c2ccc(F)cc2OC)cc(OCCO)c1` (single isomer, unassigned) [Compound 7B, 2-(4-fluoro-2-methoxyphenyl)-1-(6-fluoro-5-(trifluoromethoxy)-1H-indol-3-yl)-2-((3-(2-hydroxyethoxy)-5-methoxyphenyl)amino)ethanone], the pEC50 was 9.26 in the data set with DENV-2 strain 16681; 9.28 with DENV-2 16681 strain; 8.92 in the data set on DENV-1 strain TC974 #666; 7.28 in the data set with DENV-4 strain H241; 8.09 in the data set on DENV-3 strain H87. The CC50 at 3 days in data set [1] (setting [2]) is above 2500 nM; in data set [1] (setting [3]), above 2500 nM; in data set [1] (setting [4]) it was above 2500 nM; in data set [1] (setting [5]) it was 2100 nM. Also, the CC50 in the data set with Vero cells amounted to 2400 nM.
For the compound `COc1cc(NC(C(=O)c2c[nH]c3c(C)cc(OC(F)(F)F)cc23)c2ccc(F)cc2OC)cc(OCCO)c1` (single isomer, unassigned) [Compound 8A, 2-(4-fluoro-2-methoxyphenyl)-2-((3-(2-hydroxyethoxy)-5-methoxyphenyl)amino)-1-(7-methyl-5-(trifluoromethoxy)-1H-indol-3-yl)ethanone], the pEC50 in the data set with DENV-2 strain 16681 was 9.51; with DENV-2 16681 strain it was 9.46; with DENV-1 strain TC974 #666 it was 9.15; with DENV-4 strain H241, 7.32; with DENV-3 strain H87 it was 8.24. Moreover, the CC50 at 3 days in data set [1] (setting [2]) was 2100 nM; in data set [1] (setting [3]), 3700 nM; in data set [1] (setting [4]), above 2400 nM; in data set [1] (setting [5]), 2600 nM. The compound also had a CC50 in the data set with Vero cells of 2900 nM.
Regarding `COc1cc(NC(C(=O)c2c[nH]c3ccc(C(F)(F)F)cc23)c2ccc(Cl)cc2OC)cc(OCCO)c1` (single isomer, unassigned) [Compound 9B, 2-(4-chloro-2-methoxyphenyl)-2-((3-(2-hydroxyethoxy)-5-methoxyphenyl)amino)-1-(5-(trifluoromethyl)-1H-indol-3-yl)ethanone], the pEC50 is 9.57 in the data set with DENV-2 strain 16681; 9.74 with DENV-2 16681 strain; 9.06 in the data set on DENV-1 strain TC974 #666; 7.30 in the data set on DENV-4 strain H241; 8.20 with DENV-3 strain H87. Further, the CC50 at 3 days was above 2000 nM in data set [1] (setting [2]), 3400 nM in data set [1] (setting [3]), above 2500 nM in data set [1] (setting [4]) and 2700 nM in data set [1] (setting [5]). This compound also yielded a CC50 in the data set with Vero cells of 3300 nM.
Turning to `COc1cc(NC(C(=O)c2c[nH]c3c(C)cc(C(F)(F)F)cc23)c2ccc(Cl)cc2OC)cc(OCCO)c1` (single isomer, unassigned) [Compound 12A, 2-(4-chloro-2-methoxyphenyl)-2-((3-(2-hydroxyethoxy)-5-methoxyphenyl)amino)-1-(7-methyl-5-(trifluoromethyl)-1H-indol-3-yl)ethanone], the pEC50 in the data set on DENV-2 strain 16681 was 9.66; in the data set on DENV-2 16681 strain, 9.80; with DENV-1 strain TC974 #666, 9.40; with DENV-4 strain H241, 7.52; in the data set with DENV-3 strain H87 it was 8.41. Besides, the CC50 at 3 days in data set [1] (setting [2]) is above 2500 nM; in data set [1] (setting [3]), above 2500 nM; in data set [1] (setting [4]), above 2500 nM; in data set [1] (setting [5]), above 2400 nM. Also, in the data set with Vero cells, half-maximal cytotoxicity (CC50) was put at 2600 nM.
Regarding `COc1cc(NC(C(=O)c2c[nH]c3cc(OC)c(OC(F)(F)F)cc23)c2ccc(Cl)cc2OC)cc(OCCO)c1` (single isomer, unassigned) [Compound 14A, 2-(4-chloro-2-methoxyphenyl)-2-((3-(2-hydroxyethoxy)-5-methoxyphenyl)amino)-1-(6-methoxy-5-(trifluoromethoxy)-1H-indol-3-yl)ethanone], the pEC50 in the data set on DENV-2 strain 16681 is 9.77; in the data set with DENV-2 16681 strain, 9.77; in the data set on DENV-1 strain TC974 #666, 9.04; in the data set on DENV-4 strain H241, 7.60; with DENV-3 strain H87, 8.29. Moreover, the CC50 at 3 days was above 2100 nM in data set [1] (setting [2]), 3800 nM in data set [1] (setting [3]), above 2300 nM in data set [1] (setting [4]) and 1600 nM in data set [1] (setting [5]). For the same compound, the CC50 in the data set on Vero cells was 2500 nM.
As to `COc1cc(NC(C(=O)c2c[nH]c3cc(F)c(OC(F)(F)F)cc23)c2ccc(Cl)cc2OC)cc(OCCO)c1` (single isomer, unassigned) [Compound 15B, 2-(4-chloro-2-methoxyphenyl)-1-(6-fluoro-5-(trifluoromethoxy)-1H-indol-3-yl)-2-((3-(2-hydroxyethoxy)-5-methoxyphenyl)amino)ethanone], the pEC50 in the data set with DENV-2 strain 16681 was 9.82; in the data set with DENV-2 16681 strain, 9.54; in the data set on DENV-1 strain TC974 #666, 9.34; in the data set with DENV-4 strain H241 it was 7.51; in the data set with DENV-3 strain H87 it was 8.49. Also, the CC50 at 3 days is 1500 nM in data set [1] (setting [2]), above 2100 nM in data set [1] (setting [3]), above 2400 nM in data set [1] (setting [4]) and 1600 nM in data set [1] (setting [5]). The compound also had a CC50 with Vero cells of 2600 nM.

(Values after US10646469B2, “Substituted indole derivatives as dengue viral replication inhibitors” (Janssen Pharmaceuticals, Inc., priority 2016, dated 2020).)
